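A five-concentration, 48-hour dose response in 96-well plates underlies each endpoint, interpolated linearly between surrounding concentrations. The concentration for 50% growth inhibition is given as GI50. TGI denotes the concentration required for complete inhibition of growth.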
Experiments:
Experiment in all cases: NCI anticancer screen, dose series, 48 h
A498 renal = system: A498 renal
ACHN renal = system: ACHN renal
CAKI-1 renal = system: CAKI-1 renal
HOP-92 NSCLC = system: HOP-92 NSCLC
NCI-H460 lung = system: NCI-H460 lung
SK-MEL-28 melanoma = system: SK-MEL-28 melanoma
SN12C renal = system: SN12C renal
SNB-75 CNS = system: SNB-75 CNS
TK-10 renal = system: TK-10 renal
HCT-116 colon = system: HCT-116 colon

SMILES	TGI (A498 renal)	TGI (ACHN renal)	TGI (CAKI-1 renal)	TGI (HOP-92 NSCLC)	TGI (NCI-H460 lung)	TGI (SK-MEL-28 melanoma)	TGI (SN12C renal)	TGI (SNB-75 CNS)	TGI (TK-10 renal)	TGI (HCT-116 colon)	GI50 (ACHN renal)	GI50 (CAKI-1 renal)	GI50 (HOP-92 NSCLC)	GI50 (NCI-H460 lung)	GI50 (SK-MEL-28 melanoma)	GI50 (SN12C renal)	GI50 (SNB-75 CNS)	GI50 (TK-10 renal)	GI50 (A498 renal)	GI50 (HCT-116 colon)
Cc1c(C#N)c2nnn(C)c(=O)n2c1-c1ccccc1	> 100 µM	> 100 µM	> 100 µM	> 100 µM	> 100 µM	> 100 µM	> 100 µM	> 100 µM	> 100 µM	–	–	–	–	–	–	–	–	–	–	–
Fc1c(F)c(C(F)(F)F)c(F)c(F)c1N/N=C\c1c[nH]c2ccccc12	15 µM	19.5 µM	8.14 µM	16.5 µM	3.93 µM	20 µM	11.8 µM	6.23 µM	15.6 µM	14.5 µM	–	–	–	–	–	–	–	–	–	–
CN(C)c1ccc(/C=C/C=C\C2=CC(=C\C=C/C=C3C=CC(=[N+](C)C)C=C3)/Sc3ccccc32)cc1	> 100 µM	–	–	–	> 100 µM	28.9 µM	> 100 µM	> 100 µM	> 100 µM	> 100 µM	–	–	–	–	–	–	–	–	–	–
COc1cc2c(/C=C3/C(=O)Nc4ccc(Cl)cc43)c(Cl)n(Cc3ccccc3)c2cc1C	5.72 µM	6.8 µM	10.6 µM	25.9 µM	> 100 µM	9.46 µM	5.24 µM	4.61 µM	3.76 µM	> 100 µM	–	–	–	–	–	–	–	–	–	–
COc1ccc(-c2ccc(-c3ccc(C(=N)N)nc3)s2)cc1	–	3.24 µM	3 µM	3.07 µM	1.82 µM	3.27 µM	3.68 µM	2.88 µM	3.54 µM	–	1.84 µM	1.64 µM	1.5 µM	0.524 µM	1.75 µM	1.83 µM	1.55 µM	1.89 µM	–	–
CC(=O)OCC(=O)[C@@]1(O)CC[C@H]2[C@@H]3CCC4=CC(=O)[C@H](C)C[C@]4(C)[C@H]3[C@@H](O)C[C@@]21C	> 100 µM	> 100 µM	> 100 µM	> 100 µM	> 100 µM	> 100 µM	> 100 µM	> 100 µM	> 100 µM	> 100 µM	–	–	–	–	–	–	–	–	–	–
COc1ccc(/C=C2\OC(=O)C(Cl)=C2c2ccc(OC)cc2)cc1	> 100 µM	> 100 µM	> 100 µM	70.1 µM	> 100 µM	> 100 µM	> 100 µM	> 100 µM	> 100 µM	–	–	–	–	–	–	–	–	–	–	–
O=S(=O)([O-])[O-].[Fe+2].c1ccc(/C(=N\Nc2ccccn2)c2ccccn2)cc1	24.2 µM	5.35 µM	10.5 µM	7.67 µM	8.55 µM	–	9.69 µM	14.7 µM	7.73 µM	4.56 µM	–	–	–	–	–	–	–	–	–	–
O=C(NO)c1ccc([N+](=O)[O-])cc1	85.4 µM	–	> 100 µM	–	> 100 µM	> 100 µM	> 100 µM	93.8 µM	> 100 µM	–	–	–	–	–	–	–	–	–	–	–
COc1ccc2c(c1)CC[C@@H]1[C@@H]2CC[C@]2(C)C(=O)C3(CCCCC3)C[C@@H]12	> 100 µM	> 100 µM	> 100 µM	> 100 µM	–	> 100 µM	> 100 µM	> 100 µM	> 100 µM	> 100 µM	> 100 µM	31.9 µM	> 100 µM	–	> 100 µM	> 100 µM	> 100 µM	> 100 µM	> 100 µM	> 100 µM

— PubChem BioAssay (NCI)
